Each compound was assayed against T1, human SGLT2 (Homo sapiens, UniProt P31639, I433V) (assay: Assay for inhibitory effect on human SGLT2 activity (uptake of methyl-α-D-glucopyranoside in COS-7 cells expressing transiently human SGLT2)). Settings: methyl-α-D-(U-14C)glucopyranoside uptake, 37° C., 2 hours, read-out: IC50 (concentration at which 50% of methyl-α-D-glucopyranoside uptake was inhibited).
T1 construct: expressed in transfected cells; host or cells: COS-7 cells (RIKEN CELL BANK RCB0539), transient electroporation with plasmid KL29
T1 sequence (P31639 1-672 I433V): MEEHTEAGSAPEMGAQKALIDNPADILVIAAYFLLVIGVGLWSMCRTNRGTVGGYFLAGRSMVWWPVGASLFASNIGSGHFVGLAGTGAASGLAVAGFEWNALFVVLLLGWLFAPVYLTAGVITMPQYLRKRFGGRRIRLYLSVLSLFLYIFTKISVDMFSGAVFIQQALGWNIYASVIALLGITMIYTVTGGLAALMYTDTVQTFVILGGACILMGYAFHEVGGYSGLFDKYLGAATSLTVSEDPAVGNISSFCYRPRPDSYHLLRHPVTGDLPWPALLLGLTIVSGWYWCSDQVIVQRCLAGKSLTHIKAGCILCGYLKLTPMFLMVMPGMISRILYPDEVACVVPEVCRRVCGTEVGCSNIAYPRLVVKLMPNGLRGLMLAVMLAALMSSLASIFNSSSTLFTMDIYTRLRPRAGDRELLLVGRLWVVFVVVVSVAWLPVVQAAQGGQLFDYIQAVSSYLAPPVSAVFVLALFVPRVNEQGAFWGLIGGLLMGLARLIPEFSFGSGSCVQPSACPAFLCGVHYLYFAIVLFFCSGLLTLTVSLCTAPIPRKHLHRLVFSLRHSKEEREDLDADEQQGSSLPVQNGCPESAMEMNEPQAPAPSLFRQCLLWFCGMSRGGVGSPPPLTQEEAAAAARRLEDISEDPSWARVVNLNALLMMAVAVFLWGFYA
Type: cell-based
Experimental: Assay for Inhibitory Effect on Human SGLT2 Activity
1) Construction of the Plasmid Vector Expressing Human SGLT2
Preparation of the cDNA library for PCR amplification was performed by reverse transcription of a total RNA deprived from human kidney (Ori gene) with oligo dT as the primer, using SUPERSCRIPT Preamplification System (Gibco-BRL: LIFE TECHNOLOGIES). The DNA fragment coding for human SGLT2 was amplified by the PCR reaction using Pfu DNA Polymerase (made by Stratagene), in which the human kidney cDNA library described above was used as the template and the following oligo nucleotides 0702F and 0712R, presented as Sequence Numbers 1 and 2 respectively, were used as the primers. The amplified DNA fragment was ligated into pCR-Blunt (Invitrogen), a vector for cloning, according to standard method of the kit. The Escherichia coli HB101 Competent Cell (made by TOYOBO Co., Ltd.) was transformed according to usual method and then selection of the transformants was performed on the LB agar medium containing 50 μg/mL of kanamycin. After plasmid DNA was extracted and purified from the one of the transformants, amplifying of the DNA fragment coding for human SGLT2 was performed by the PCR reaction using Pfu DNA Polymerase (made by Stratagene), in which the following oligo nucleotides 0714F and 0715R, presented as Sequence Numbers 3 and 4 respectively, were used as the primers. The amplified DNA fragment was digested with restriction enzymes, Xho I and Hind III, and then purified with Wizard Purification System (Promega). This purified DNA fragment was inserted at the corresponding restriction sites of pcDNA3.1 (−) Myc/His—A (Invitrogen), avector for expressing of fusion protein. The Escherichia coli HB101 Competent Cell (made by TOYOBO Co., Ltd.) was transformed according to usual method and then selection of the transformant was performed on the LB agar medium containing 100 μg/mL of ampicillin. After plasmid DNA was extracted and purified from this transformant, the base sequence of the DNA fragment inserted at the multi-cloning sites of the vector pcDNA3.1 (−) Myc/His—A was analyzed. […] Sequentially, a clone in which valine is substituted for isoleucine-433 was obtained. This plasmid-vector expressing human SGLT2 in which the peptide presented as Sequence Number 5 is fused to the carboxyl terminal alanine residue was designated KL29.
2) Preparation of the Cells Expressing Transiently Human SGLT2
KL29, the plasmid coding human SGLT2, was transfected into COS-7 cells (RIKEN CELL BANK RCB0539) by electroporation. Electroporation was performed with GENE PULSER II (Bio-Rad Laboratories) under the condition: 0.290 kV, 975 μF, 2×10^6 cells of COS-7 cell and 20 μg of KL29 in 500 μL of OPTI-MEM I medium (Gibco-BRL: LIFE TECHNOLOGIES) in the 0.4 cm type cuvette. […]

| IC50 | Compound |
| --- | --- |
| 41 nM | CCc1ccc(Cc2c(C)cc(C)nc2O[C@@H]2O[C@H](CO)[C@@H](O)[C@H](O)[C@H]2O)cc1 [Example 18, 3-(4-Ethylbenzyl)-2-(β-D-glucopyranosyloxy)-4,6-dimethyl-pyridine] |
| 45 nM | COc1ccc(Cc2c(C)cc(C)nc2O[C@@H]2O[C@H](CO)[C@@H](O)[C@H](O)[C@H]2O)cc1 [Example 19, 2-(β-D-Glucopyranosyloxy)-3-(4-methoxybenzyl)-4,6-dimethyl-pyridine] |
| 45 nM | Cc1cc(C)c(Cc2ccc(CCO)cc2)c(O[C@@H]2O[C@H](CO)[C@@H](O)[C@H](O)[C@H]2O)n1 [Example 20, 2-(β-D-Glucopyranosyloxy)-3-[4-(2-hydroxyethyl)benzyl]-4,6-dimethylpyridine] |
| 55 nM | COc1ccc(Cc2c(C)cc(OC)nc2O[C@@H]2O[C@H](CO)[C@@H](O)[C@H](O)[C@H]2O)cc1 [Example 21, 2-(β-D-Glucopyranosyloxy)-6-methoxy-3-(4-methoxybenzyl)-4-methylpyridine] |
